pIC50: −log10 of the molar value.
Legend:
[1] = Inhibition of rat DNA polymerase in presence of bovine serum albumin
[2] = Inhibition of rat DNA polymerase in absence of bovine serum albumin
Mus musculus = experiment: Antiinflammatory activity against croton oil-induced ear edema in mouse; assay type: functional

| SMILES | pIC50 [1] | pIC50 [2] | ID50 (Mus musculus) [µmol] |
| --- | --- | --- | --- |
| CC1(C)CC[C@]2(C(=O)O)CC[C@]3(C)C(=CC[C@@H]4[C@@]5(C)CC[C@H](O)C(C)(C)[C@@H]5CC[C@]43C)[C@@H]2C1 [OLEANOLIC_ACID] | 5.12 | 5.43 | – |
| COc1ccc2c(c1)c(CC(=O)O)c(C)n2C(=O)c1ccc(Cl)cc1 [INDOMETHACIN] | – | – | 0.26 |
| C[C@H]1[C@H](C)CC[C@]2(C(=O)O)CC[C@]3(C)C(=CC[C@@H]4[C@@]5(C)CC[C@H](O)C(C)(C)[C@@H]5CC[C@]43C)[C@H]12 [URSOLIC ACID] | 5.07 | 5.32 | 0.14 |
